{
  "source": "patent US9920383B2",
  "about": "“Active substances for increasing the stress defense in plants to abiotic stress, and methods of finding them” (Bayer Intellectual Property GMBH, priority 2005, dated 2018)",
  "key": {"maize plants [1]": {"test_system": "maize plants", "experiment": "Chill stress experiment (field) with maize plants, seed dressing", "assay_type": "in vivo, maize (dent com)", "details": "for Chill damage [%]: number of plants with chill damage > 20% of the total number of plants in the test plot", "description": "One control plant contains untreated seed. Approximately 8 days after the seed emerged, the seedlings were in the one-leaf stage and were exposed for 5 days to the following temperature conditions:\nAfter this chill period, the test plots were scored. For this purpose, all plants were assessed individually, and plants with at least 20% chill symptoms based on the total leaf area (burns and/or chloroses) were considered to be damaged."}, "maize plants [2]": {"test_system": "maize plants", "experiment": "Heat stress experiment with maize plants, seed dressing with active substance", "assay_type": "in vivo, maize cv. Lorenzo", "from_the_text": "Maize seeds cv. Lorenzo were dressed as in example 1 with the compound 4-cyclopropylaminocarbonyl-N-(2-methoxybenzoyl)benzenesulfonamide (=VIII-3) or treated only with solvent without active substance. The seedlings were raised for 10 days in the controlled-environment chamber under defined conditions, likewise as described in example 1.2×10 pots with maize plants were used for the heat stress experiment. The control group consisted of undressed plants (solvent), the test group of plants which had been dressed with active substance. To apply the heat stress conditions, both plant groups were placed for 2 days into a controlled-environment cabinet at 45′C, white light, long day (16 hours fight, 8 hours dark) and 70% atmospheric humidity. To avoid desiccation as the result of the high temperature, the plants were irrigated once per day from below by raising the water level in a tray. After the heat stress, it was observed that—especially in the control group—the shoots of many plants had collapsed and that the leaves were lying flat on the ground.\nThe experiment was valued quantitatively, taking into consideration the following criteria.\nAfter the heat treatment, the plants which had collapsed were counted and the result per pot was assessed:\nThereafter, all plants were grown on for 2 weeks under standard conditions. Then, the length increment of the individual plants was measured, and the survival rate of the plants per pot was determined: […]"}, "maize plants [3]": {"test_system": "maize plants", "experiment": "Drought stress experiment with maize plants, seed dressing with active substance", "assay_type": "in vivo, maize cv. Lorenzo", "details": "for Relative dry matter [%]: relative to control group 2 (−S/−D)", "description": "Maize seeds cv. Lorenzo were dressed with the compound 4-cyclopropylamino-carbonyl-N-(2-methoxybenzoyl)benzenesulfonamide (=VIII-3). To this end, 10 g of seeds were incubated with 20 mg of active substance dissolved in 2 ml of methylene chloride, with gentle shaking, until the solvent had evaporated (approx. 30 minutes). The seeds of the control group were only dressed with solvent. Thereafter, the treated seeds were placed into pots with compost (diameter 10 cm, in each case 10 seeds per pot), and the maize seedlings were raised for 10 days in a controlled-environment chamber under defined light, moisture and temperature conditions [white light, long day (16 hours light, 8 hours dark), 70% atmospheric humidity, 24° C.]. In each case 2×10 pots were used for the control groups and for the drought stress experiment. While the plants were raised, they were watered from below for 20 minutes every 2 days by raising the water level in a tray. 10 days after the seeds had germinated, the maize plants were exposed to the drought stress. To this end, the plants of control group 1 (without dressing with active substance) and of the test group (with dressing with active substance) were only irrigated every 7 days as described above. In the case of the plants of control group 2 (without dressing with active substance) and of the test group 2 (with dressing with active substance), the normal irrigation regime was reclaimed. After 3 weeks of drought stress conditions, the experiment was evaluated as follows. The aerial plant parts were cut off and dried overnight at 50° C. On the next day, the foliar biomass was determined in [g] (dry matter) per pot.\nThe data were averaged over the in each case 10 pots of the plant group. The numerical values shown in table 1 are relative values in [%] relative to the data obtained with the control group 2 (without dressing with active substance, normal irrigation regime)."}, "maize plants [4]": {"test_system": "maize plants", "experiment": "Chill-stress experiment (greenhouse) with maize plants, pre-emergence treatment", "assay_type": "in vivo, maize cv. Lorenzo", "details": "for Number of damaged plants (chloroses): chill stress 6 h at −2° C, 20 plants per group", "from_the_text": "Maize seeds cv. Lorenzo were sown into 10-cm-pots into compost at a rate of 10 seeds per pot. All experimental groups consisted of in each case 4 pots. The sown seeds of test groups 1 and 2 were sprayed pre-emergence with 50 and 100 [g a.i./ha], respectively, of the compound 4-cyclopropylaminocarbonyl-N-(2-methoxybenzoyl)benzenesulfonamide (=VIII-3). The seeds of the control group remained untreated. The plants were raised under controlled conditions in a controlled-environment chamber [white light (long day: 16 h light, 8 h dark), 22° C. day-time temperature, 14° C. night-time temperature, 60% atmospheric humidity].\nAfter germination, when the plants had attained a length of approx. 1 cm, 2 pots from each group were incubated for 6 h in a different controlled-environment chamber under chill-stress conditions at −2° C. Thereafter, these plants were returned to the others in the first controlled-environment chamber.\nTo evaluate the experiment quantitatively, the plants with chloroses of the leaf tips were counted. The total number of the plants per test group and cold stress treatment was 20, provided over 2 pots in each case."}, "[5]": {"details": "seeds dressed, after heat stress"}},
  "data": [
    {"smiles": "COc1ccccc1C(=O)NS(=O)(=O)c1ccc(C(=O)NC2CC2)cc1", "note": "[VIII-3, 4-cyclopropylaminocarbonyl-N-(2-methoxybenzoyl)benzenesulfonamide]", "values": [
      {"measurement": "Chill damage [%]", "setting": "maize plants [1]; dressed with 0.003 mg per seed", "value": 12, "unit": "%"},
      {"measurement": "Chill damage [%]", "setting": "maize plants [1]; dressed with 0.03 mg per seed", "value": 12, "unit": "%"},
      {"measurement": "chill damage compared with control plot", "setting": "maize plants [1]; test plots with dressing with active substance", "value": "significantly reduced"},
      {"measurement": "plants showing damage symptoms", "setting": "maize plants [1]; test plots with dressing with active substance (both quantities)", "value": "approximately 12%"},
      {"measurement": "Interim score (collapsed plants)", "setting": "maize plants [2]; +S/+H: seeds dressed, heat stress 2 days 45° C, one symbol per pot (10 pots)", "value": "◯◯◯◯◯◯◯◯◯◯"},
      {"measurement": "\"standing\" of the plants after heat stress", "setting": "maize plants [2]; [5]", "value": "considerably better"},
      {"measurement": "survival rate compared with the control group", "setting": "maize plants [2]; [5]", "value": "significantly higher"},
      {"measurement": "Relative dry matter [%]", "setting": "maize plants [3]; +S/+D: seeds dressed (20 mg per 10 g seeds), 3 weeks drought stress", "value": 80, "unit": "%"},
      {"measurement": "Relative dry matter [%]", "setting": "maize plants [3]; +S/−D: seeds dressed, normal irrigation (no drought stress)", "value": 100, "unit": "%"},
      {"measurement": "average foliar biomass (dry matter) over the undressed control plant", "setting": "maize plants [3]; under drought stress (control group 1 vs test group 1)", "value": "significantly increased"},
      {"measurement": "Number of damaged plants (chloroses)", "setting": "maize plants [4]; 50 g a.i./ha pre-emergence", "value": 1},
      {"measurement": "Number of damaged plants (chloroses)", "setting": "maize plants [4]; 100 g a.i./ha pre-emergence", "value": 0},
      {"measurement": "occurrence of chill stress damage symptoms", "setting": "maize plants [4]; at the higher dosage rate", "value": "completely prevents"},
      {"measurement": "chloroses at the leaf tips after chill stress", "setting": "maize plants [4]; plants treated with the active substance, 24 hours after chill stress", "value": "either absent or only very weakly pronounced"},
      {"measurement": "plants showing damage symptoms", "setting": "maize plants [4]; test groups kept exclusively under standard conditions without chill stress", "value": "None"},
      {"measurement": "damage symptoms which are the result of chill stress", "setting": "maize plants [4]; treatment with the active substance (lower dosage rate)", "value": "markedly reduce"}
    ]}
  ]
}
